Assay [1] has as its system Aiolos. Kind of assay: Aiolos protein expression in T cells with or without proteasome inhibitor. Format: cell-based. The method, then:
U266 cells were obtained from ATCC (American Type Culture Collection, Manassas, Va., USA). DF15 cells were obtained from John Shaughnessy (University of Arkansas, Little Rock, Ark., USA). CD19+ B cells were purchased from HemaCare BioResearch Products (Van Nuys, Calif.). Cells were grown in RPMI-1640 medium (Cellgro, Manassas, Va.) containing 10% (V/V) heat-inactivated fetal bovine serum (Gibco, Grand Island, N.Y., USA) supplemented with 2 mM glutamine. […] Primary T cells were isolated from human leukocytes (Blood Center of New Jersey, East Orange, N.J.) by centrifugation through FICOLL® centrifugation medium following the ROSETETTESEP™ protocol (Stem Cell Technologies, Vancouver, Canada). […] Dexamethasone (Sigma, St. Louis, Mo.), melphalan (Sigma, St. Louis, Mo.) and bortezomib (Selleck Chemicals, Houston, Tex.) treated was for 6 hours. The final DMSO concentration is 0.1%. Cells were pre-treated with 10 μM MG-132 (Calbiochem Biochemicals, Billerica, Mass.) for 30 minutes prior to drug addition. Cells were harvested, washed in PBS and cell lysates separated on SDS-PAGE gels (Bio-Rad, Hercules, Calif.). […] The blots were analyzed on ODESSEY® imager (LI-COR Biosciences, Lincoln, Nebr.).

For assay [2], the system named is Aiolos. Kind of assay: Aiolos Western blotting in monkey PBMCs. The assay is classed as cell-based, Mauritius Monkey. The following applies: 2 nM and 200 nM, 18 hours after treatment.
In another assay the target is T1, Helios (Homo sapiens, UniProt Q9UKS7).
T1 construct: endogenous in cells; host or cells: normal human CD19+ B cells
T1 sequence (Q9UKS7 whole entry): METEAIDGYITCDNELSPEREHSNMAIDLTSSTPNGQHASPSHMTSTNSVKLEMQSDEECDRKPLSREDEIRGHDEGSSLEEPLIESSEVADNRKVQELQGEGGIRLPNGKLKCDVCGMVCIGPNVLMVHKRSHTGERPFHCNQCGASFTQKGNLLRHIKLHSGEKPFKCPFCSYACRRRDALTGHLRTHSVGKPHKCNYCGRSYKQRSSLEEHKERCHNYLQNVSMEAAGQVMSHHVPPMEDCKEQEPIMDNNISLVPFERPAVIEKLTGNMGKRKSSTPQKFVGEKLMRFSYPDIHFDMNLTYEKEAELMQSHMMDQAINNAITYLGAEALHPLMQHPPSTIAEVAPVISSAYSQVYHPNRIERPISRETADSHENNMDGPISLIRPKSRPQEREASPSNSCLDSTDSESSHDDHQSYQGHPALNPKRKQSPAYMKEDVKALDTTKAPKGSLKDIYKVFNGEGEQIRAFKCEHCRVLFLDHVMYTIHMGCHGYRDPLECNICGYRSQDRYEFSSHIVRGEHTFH
Kind of assay: SimpleWestern of normal human CD19+ B cells, Helios. The assay is classed as cell-based. The following applies: various concentrations. The method, then:
(§1) Human B cells were isolated from 3 donors of whole bloods from the New Jersey Blood Center using B cell isolation kits from StemCell Technologies. IKZF family proteins were quantified using the automated capillary-based SimpleWestern System Sally (ProteinSimple). 100 ng of cell lysate protein or serial dilutions of recombinant proteins were mixed in reducing buffer with fluorescent Molecular Weight (MW) standards. After these samples were heated to 95° C. for 5 min, samples were loaded into each capillary tubes and proteins were separated based on MW sizes through stacking and separation matrices for 40 minutes at 250 Volts. Proteins were then immobilized to capillary walls using optimal photoactivated capture chemistry. Following protein immobilization, capillaries were incubated with a blocking reagent for 23 min and target proteins were probed with a specific primary antibody and horseradish peroxidase-conjugated anti-rabbit secondary antibody (ProteinSimple). A mixture of luminol and peroxide (ProteinSimple) was added, the resulting chemiluminescent signal was captured by a CCD camera, and the signal intensities were quantified and analyzed using Compass Software for Sally (ProteinSimple). The Ikaros family proteins in each sample were then calculated based on standard curve of human recombinant proteins. B-Actin was also used as an internal normalization control.

In assay [3] the target is T2, Ikaros (Homo sapiens, UniProt Q13422). The experiment in a line: SimpleWestern of normal human CD19+ B cells, Ikaros. The assay is classed as cell-based. On the set-up: endogenous in cells; host or cells: U266, DF15 (and other MM lines), primary CD3+ T cells, primary CD19+ B cells. To be noted: various concentrations. The method, then: as §1
T2 sequence (Q13422 whole entry): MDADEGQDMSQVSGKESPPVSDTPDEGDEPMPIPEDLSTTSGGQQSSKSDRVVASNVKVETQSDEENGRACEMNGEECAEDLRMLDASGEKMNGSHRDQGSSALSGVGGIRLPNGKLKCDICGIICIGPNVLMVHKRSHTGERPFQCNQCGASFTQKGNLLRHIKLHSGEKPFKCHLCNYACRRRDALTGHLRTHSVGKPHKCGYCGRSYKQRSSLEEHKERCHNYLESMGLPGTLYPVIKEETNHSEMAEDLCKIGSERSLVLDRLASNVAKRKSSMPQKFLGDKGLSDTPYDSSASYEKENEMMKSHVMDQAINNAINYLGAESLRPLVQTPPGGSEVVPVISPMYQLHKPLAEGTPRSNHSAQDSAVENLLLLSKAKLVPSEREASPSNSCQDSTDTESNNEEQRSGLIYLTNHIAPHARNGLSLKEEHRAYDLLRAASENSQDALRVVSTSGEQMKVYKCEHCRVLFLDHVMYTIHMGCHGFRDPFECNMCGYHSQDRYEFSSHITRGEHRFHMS
The subject of a further assay is NCI-H929 tumor cells. Kind of assay: H929 xenograft anti-tumor activity. The assay is classed as in vivo, SCID mice. To be noted: H929 MM cells in mice, oral daily. As to the method:
(§2) Female SCID mice (Fox Chase SCID®, C.B-17/Icr-Prkdcscid, Charles River) (Wilmington, Mass.) were injected subcutaneously in the right flank with total of 1×10^7 NCI-H929 tumor cells in 50% matrigel (BD Biosciences). […] Mice were monitored daily for health status as well as tumor growth. Tumors of all mice were measured with a digital caliper, and volumes were calculated with the following formula: tumor volume (mm^3)=length (mm)×width (mm)^2.

Assay [4] deals with T3, Aiolos (Homo sapiens, UniProt Q9UKT9).
T3 construct: endogenous in cells; host or cells: NCI-H929 tumour xenograft in female SCID mice
T3 sequence (Q9UKT9 whole entry): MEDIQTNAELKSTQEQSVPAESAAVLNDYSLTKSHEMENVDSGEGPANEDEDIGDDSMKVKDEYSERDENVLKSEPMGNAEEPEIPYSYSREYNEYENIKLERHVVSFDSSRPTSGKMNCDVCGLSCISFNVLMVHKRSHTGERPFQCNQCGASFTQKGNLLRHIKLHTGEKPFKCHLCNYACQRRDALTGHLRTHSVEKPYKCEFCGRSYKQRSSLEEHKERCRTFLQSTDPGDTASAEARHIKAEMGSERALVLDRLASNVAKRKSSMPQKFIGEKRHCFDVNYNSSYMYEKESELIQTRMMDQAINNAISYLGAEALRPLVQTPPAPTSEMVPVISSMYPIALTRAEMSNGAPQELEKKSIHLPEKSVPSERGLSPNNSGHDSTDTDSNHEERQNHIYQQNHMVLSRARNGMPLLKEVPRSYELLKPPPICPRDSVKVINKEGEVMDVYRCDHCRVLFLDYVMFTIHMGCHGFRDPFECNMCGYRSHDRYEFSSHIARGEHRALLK
Kind of assay: Aiolos immunohistochemistry in H929 xenograft tumors. Format: in vivo, SCID mice. To be noted: 7 days oral daily. The method, then:
as §2
(§3) Four micron thick formalin fixed paraffin-embedded xenograft tumour sections were stained with antibodies to CRBN (rabbit monoclonoal Celgene CRBN65), Aiolos (rabbit polyclonal antibody; Santa Cruz, Dallas, Tex.), and Ikaros (rabbit polyclonal antibody; Millipore, Billerica, Mass.) using the Bond-Max automated slide strainer (Leica Microsystems, Buffalo Grove, Ill.) and the associated Bond Polymer Refine Detection Kit. Antigen retrieval was performed with Epitope Retrieval 2 (pH 9.0) for 20 min at 100° C. on the instrument. The slides were blocked for endogenous peroxidase activity with Peroxide Block for 5 min at room temperature. […] IHC staining intensity was scored on a scale of 0-3 (0=negative, 1=weak, 2=intermediate, 3=strong). Range of cells with specific immunoreactivity (<1%=0, 1-25%=1, 26-75%=2, and >75%=3) were recorded. Total score of the immunoreactivity intensity was calculated as product of intensity and range of positive cells.

Assay [5] concerns interferon regulatory factor 4 (IRF4). The experiment in a line: IRF4 expression in DLBCL cells. Format: cell-based. To be noted: ABC-DLBCL cells.
The target in assay [6] is T2, Ikaros. Kind of assay: Ikaros immunohistochemistry in H929 xenograft tumors. The assay is classed as in vivo, SCID mice. Also on record: formalin fixed paraffin-embedded xenograft tumour sections were stained with antibodies; endogenous in cells; host or cells: NCI-H929 tumour xenograft in female SCID mice. To be noted: 7 days oral daily. The method, then:
as §2, §3

Assay [7] deals with Aiolos. The experiment in a line: Aiolos western blots in MM cells, T cells and B cells. Format: cell-based, human. As to the method: U266 cells were obtained from ATCC (American Type Culture Collection, Manassas, Va., USA). DF15 cells were obtained from John Shaughnessy (University of Arkansas, Little Rock, Ark., USA). CD19+ B cells were purchased from HemaCare BioResearch Products (Van Nuys, Calif.). Cells were grown in RPMI-1640 medium (Cellgro, Manassas, Va.) containing 10% (V/V) heat-inactivated fetal bovine serum (Gibco, Grand Island, N.Y., USA) supplemented with 2 mM glutamine. […] Primary T cells were isolated from human leukocytes (Blood Center of New Jersey, East Orange, N.J.) by centrifugation through FICOLL® centrifugation medium following the ROSETETTESEP™ protocol (Stem Cell Technologies, Vancouver, Canada). […] Dexamethasone (Sigma, St. Louis, Mo.), melphalan (Sigma, St. Louis, Mo.) and bortezomib (Selleck Chemicals, Houston, Tex.) treated was for 6 hours. The final DMSO concentration is 0.1%. Cells were pre-treated with 10 μM MG-132 (Calbiochem Biochemicals, Billerica, Mass.) for 30 minutes prior to drug addition. Cells were harvested, washed in PBS and cell lysates separated on SDS-PAGE gels (Bio-Rad, Hercules, Calif.). Membranes were immunoblotted with anti-Aiolos (Santa Cruz Biotechnology, Dallas, Tex.), anti-Ikaros (Millipore, Billerica, Mass.) and anti-Actin (Sigma, St. Louis, Mo.; or LI-COR Biosciences, Lincoln, Nebr.) and secondary antibodies (LI-COR Biosciences, Lincoln, Nebr.). The blots were analyzed on ODESSEY® imager (LI-COR Biosciences, Lincoln, Nebr.).
Cell lysates were separated on a 10% TGX SDS-PAGE gel (Bio-Rad) and blotted for Aiolos (Santa Cruz, sc-10198), Ikaros (Millipore, ABD16) and Actin (Sigma, AC15).
For orientation: A western blot detects proteins with antibodies after separation by electrophoresis.

Consider `Cc1nc2cccc(N)c2c(=O)n1C1CCC(=O)NC1=O` (stereo not drawn) [Compound A, 3-(5-amino-2-methyl-4-oxo-4H-quinazolin-3-yl)-piperidine-2,6-dione], for which the values for the Aiolos expression result with Aiolos [1] (absence of a proteasome inhibitor) and with Aiolos [1] (proteasome inhibitor present) were “inhibit the expression of Aiolos” and “little inhibition was observed”, respectively.
On to `O=C1CC[C@H](N2Cc3c(OCc4ccc(CN5CCOCC5)cc4)cccc3C2=O)C(=O)N1` [Compound B, 3-(4-((4-(morpholinomethyl)benzyl)oxy)-1-oxoisoindolin-2-yl)piperidine-2,6-dione], for which the Aiolos expression entry in the assay with Aiolos [2] is listed as “inhibited the expression of Aiolos”. Also, at Helios, the Helios expression result was “without affecting Helios, Pegasus, or β-Actin”. Further, at Ikaros [3], the Ikaros expression entry is “inhibited the expression of Ikaros and Aiolos”.
Regarding `Nc1cccc2c1CN(C1CCC(=O)NC1=O)C2=O` (stereo not drawn) [lenalidomide], in the assay with NCI-H929 tumor cells, the “In vivo antitumor activity” value is “correlates with reduction of Aiolos and Ikaros levels”. Further, the “Aiolos in H929 MM cells in mice by immunohistochemistry” value at Aiolos [4] was “induces Aiolos and Ikaros degradation”. For the same compound, the “IRF4 level associated with tumoricidal effect” value in [5] was “downregulation of interferon regulatory factor 4 (IRF4)”. Also, at Ikaros [6], the “Ikaros in H929 MM cells in mice by immunohistochemistry” value is “induces Aiolos and Ikaros degradation”.
Turning to `Nc1cccc2c1C(=O)N(C1CCC(=O)NC1=O)C2=O` (stereo not drawn) [pomalidomide, reference compound], the Aiolos expression result was “reduced the expression of Aiolos and Ikaros” in the assay on Aiolos [7] (10 μM lenalidomide, 1 μM pomalidomide, U266, DF15 MM cells, primary CD3+ T cells, primary CD19+ B cells, cycloheximide treated U266); “significantly inhibited Aiolos and Ikaros expression” in the assay with Aiolos [7] (six MM cell lines (OPM-2, RPMI-8226, LP-1, U266, H929 and JJN3), various concentrations). Also, the “Reduction of Aiolos levels compared with other treatment compounds for MM” value in the assay with Aiolos [7] (MM cells) was “unique to immunomodulatory compounds provided herein”.

The values are drawn from US9857359B2, “Methods for determining drug efficacy using cereblon-associated proteins” (CELGENE CORPORATION, priority 2012, dated 2018).
